Test results reported in the NIST ThermoML archive (doi:10.1016/j.fluid.2015.09.010).
Numbers after ± are expanded uncertainties.

Conditions: Gas, single sinker densimeter

`CCC` [propane] gave a mass density (258.14 K, 101.23 kPa) of 2.1368 ± 0.0093 kg/m3, a mass density (258.15 K, 201.63 kPa) of 4.3743 ± 0.0095 kg/m3 and a mass density (258.15 K, 276.61 kPa) of 6.1388 ± 0.0098 kg/m3. It also gave a mass density (263.16 K, 209.67 kPa) of 4.4546 ± 0.0094 kg/m3, a mass density (263.17 K, 101.09 kPa) of 2.0885 ± 0.0091 kg/m3 and a mass density (263.17 K, 314.8 kPa) of 6.8907 ± 0.0097 kg/m3. For the same compound, the mass density (268.14 K, 251.5 kPa) was 5.2792 ± 0.0091 kg/m3, the mass density (268.15 K, 101.59 kPa) was 2.0567 ± 0.009 kg/m3 and the mass density (268.16 K, 297.13 kPa) was 6.3169 ± 0.0098 kg/m3. For the same compound, the mass density (268.16 K, 386.83 kPa) was 8.4369 ± 0.0099 kg/m3, the mass density (273.14 K, 250.22 kPa) was 5.1361 ± 0.0093 kg/m3 and the mass density (273.15 K, 101.64 kPa) was 2.0179 ± 0.0088 kg/m3. It also gave a mass density (273.15 K, 101.65 kPa) of 2.0177 ± 0.0088 kg/m3, a mass density (273.15 K, 462.55 kPa) of 10.0438 ± 0.0098 kg/m3 and a mass density (278.14 K, 283.52 kPa) of 5.7427 ± 0.0093 kg/m3. The mass density (278.14 K, 542.76 kPa) was 11.76 ± 0.0099 kg/m3, the mass density (278.15 K, 105.47 kPa) was 2.0544 ± 0.0087 kg/m3 and the mass density (283.13 K, 101.63 kPa) was 1.942 ± 0.0085 kg/m3. It also gave a mass density (283.13 K, 284.93 kPa) of 5.6533 ± 0.0089 kg/m3, a mass density (283.13 K, 452.56 kPa) of 9.3303 ± 0.0097 kg/m3 and a mass density (283.13 K, 615.83 kPa) of 13.2515 ± 0.01 kg/m3. For the same compound, the mass density (288.21 K, 421.87 kPa) was 8.433 ± 0.0093 kg/m3, the mass density (288.21 K, 538.6 kPa) was 11.0628 ± 0.0099 kg/m3 and the mass density (288.22 K, 101.88 kPa) was 1.9105 ± 0.0083 kg/m3. The mass density (288.22 K, 217.75 kPa) was 4.1713 ± 0.0084 kg/m3, the mass density (288.22 K, 322.62 kPa) was 6.3129 ± 0.0088 kg/m3 and the mass density (288.22 K, 653.34 kPa) was 13.8134 ± 0.01 kg/m3. The mass density (293.1 K, 803.62 kPa) was 17.2181 ± 0.011 kg/m3, the mass density (293.12 K, 106.57 kPa) was 1.9628 ± 0.0083 kg/m3 and the mass density (293.12 K, 340.88 kPa) was 6.5552 ± 0.0084 kg/m3.

`F/C=C/C(F)(F)F` [trans-1,3,3,3-tetrafluoropropene] showed a mass density (263.17 K, 142.52 kPa) of 7.8479 ± 0.023 kg/m3, a mass density (263.18 K, 101.66 kPa) of 5.5042 ± 0.023 kg/m3 and a mass density (263.18 K, 124.43 kPa) of 6.8014 ± 0.023 kg/m3. For the same compound, the mass density (268.16 K, 105.74 kPa) was 5.6056 ± 0.022 kg/m3, the mass density (268.16 K, 137.08 kPa) was 7.3536 ± 0.023 kg/m3 and the mass density (268.17 K, 168.48 kPa) was 9.1497 ± 0.023 kg/m3. For the same compound, the mass density (273.11 K, 102.98 kPa) was 5.3503 ± 0.022 kg/m3, the mass density (273.12 K, 145.02 kPa) was 7.6483 ± 0.022 kg/m3 and the mass density (273.12 K, 198.33 kPa) was 10.6692 ± 0.023 kg/m3. For the same compound, the mass density (278.14 K, 103.54 kPa) was 5.2727 ± 0.022 kg/m3, the mass density (278.14 K, 152.59 kPa) was 7.8948 ± 0.022 kg/m3 and the mass density (278.14 K, 200.35 kPa) was 10.5385 ± 0.023 kg/m3. The mass density (278.14 K, 249.93 kPa) was 13.3894 ± 0.023 kg/m3, the mass density (283.14 K, 106.17 kPa) was 5.3014 ± 0.021 kg/m3 and the mass density (283.15 K, 201.69 kPa) was 10.3769 ± 0.022 kg/m3. For the same compound, the mass density (283.15 K, 290.13 kPa) was 15.3909 ± 0.024 kg/m3, the mass density (283.15 K, 303.37 kPa) was 16.1704 ± 0.024 kg/m3 and the mass density (288.11 K, 185.99 kPa) was 9.3221 ± 0.021 kg/m3. It also gave a mass density (288.12 K, 261.69 kPa) of 13.4297 ± 0.023 kg/m3, a mass density (288.12 K, 338.42 kPa) of 17.8195 ± 0.024 kg/m3 and a mass density (288.13 K, 107.78 kPa) of 5.2812 ± 0.021 kg/m3. For the same compound, the mass density (288.13 K, 356.37 kPa) was 18.8808 ± 0.024 kg/m3, the mass density (293.16 K, 106.73 kPa) was 5.1257 ± 0.021 kg/m3 and the mass density (293.16 K, 210.6 kPa) was 10.407 ± 0.021 kg/m3. For the same compound, the mass density (293.16 K, 302.68 kPa) was 15.3725 ± 0.023 kg/m3 and the mass density (293.16 K, 408.92 kPa) was 21.5052 ± 0.024 kg/m3.
